Reference: US20240117303A1, “METHODS AND COMPOSITIONS FOR GENERATING HUMAN MIDBRAIN DOPAMINERGIC NEURONS FROM NEURAL PROGENITOR CELLS” (Trailhead Biosystems Inc., priority 2022, published 2024)
“Also recorded” adds a separate entry of the source.

Legend:
Assay type in all cases: cell-based, human
[1] = tested on: stage 2 neural progenitors; test: HD-DoE another 12-factor model for stage 3 recipe (FIG. 24, 25, 30)
Experimental: In another 12-factor model, additional factors including Activin A, Takinib (TAK inhibitor), FGF8b, AZD3147 (mTOR antagonist), MHY1485 (mTOR agonist), and Yhhu-3792 (Notch agonist) were tested. Some of the factors from previous model (BMP7, A 8301, LDN193189, PD0325901, MK2206 and DBZ) were also included.
(§1) To assess the impact of elimination of each validated factor identified in Example 5 for the stage 3 and stage 4 recipes, we used dynamic profile analysis and compared the expression level of genes of interest in absence of each finalized factor while others are present.
In another model, to determine the combinatorial effect of AZD3147 and DBZ on gene profile of cells in presence of other factors of final recipe, the expression levels of SOX6 and MSX1 were compared in the absence of each of the factors in the presence of PD0325901 and BMP7. These two compounds were the only final compounds that were included in inputs of this experimental model The results are shown in FIG. 30A and FIG. 30B. […] When DBZ was removed, the level of SOX6 and MSX1 both decreased to 140 and 35, respectively.

MB neural progenitors = test: HD-DoE 8-factor model, DBZ and AZD3147 (FIG. 26); conditions: dynamic profile
stage 3 immature neurons = test: HD-DoE 8-factor experiment for stage 4 recipe (FIG. 27, 28, 31)
Experimental: To further differentiate the cells to a mature neuronal identity, additional HD-DoE experiments were performed on the cells that were cultured in stage 1, stage 2 and stage 3 differentiation media. After 4 days, gene expression of cells in different combinatorial conditions were investigated. At this time, we focused on maximal expression of more mature dopaminergic genes such as NR4A2, PITX3 and TH (Tiklová et al. (2020) Nat Commun. 11:2434; Fiorenzano et al. (2021) Nat Commun., 12:7302). In one model, cells were treated with a combinatorial matrix with eight inputs including CHIR99021, BDNF, GDNF, Rosiglitazone, GW7647, DBZ and heparin.
as §1
In the stage 4 recipe, each of six finalized factors were excluded while other factors were present and the expression levels of NR4A2 and PITX3 were assessed compared to the presence of all factors.

[2] = tested on: stage 2 neural progenitors; test: HD-DoE 12-factor model for stage 3 recipe (FIG. 19-23, 29); conditions: model optimized for maximum expression of KCNJ6; positive regulators

C[C@H](NC(=O)Cc1cc(F)cc(F)c1)C(=O)N[C@@H]1C(=O)N(C)c2ccccc2-c2ccccc21 [DBZ]
level of MSX1 in absence of the factor ([1]; AZD3147, DBZ, PD0325901 and BMP7 set, 45 with all factors): 35
level of SOX6 in absence of the factor ([1]; AZD3147, DBZ, PD0325901 and BMP7 set, 185 with all factors): 140
impact on expression of MSX1 ([1]; dynamic profile, 12 effectors): did not show any significant impact
impact on expression of SOX6 ([1]; dynamic profile, 12 effectors): positive impact
factor contribution ([1]; model optimized for SOX6, positive impact): 21.5
impact on expression of CORIN, KCNJ6, SOX6 and MSX1 (MB neural progenitors): positive regulatory effect; also recorded: Positive impact
impact on expression of NR4A2 (stage 3 immature neurons; 8-factor model / dynamic profile): positive regulatory impact
expression level of PITX3 in absence of the factor (stage 3 immature neurons; stage 4 recipe, other factors present, 40 with all factors): 30
expression level of NR4A2 in absence of the factor (stage 3 immature neurons; stage 4 recipe, other factors present, 400 with all factors): 200
factor contribution [2]: low factor contributions
